“Also recorded” adds a separate entry of the source.
What was measured:
Assay type in all cases: in vivo
[1] = tested on: STZ-induced diabetic mice; experiment: Feedstuff intake of the diabetic mice; conditions: propolins study
Method: (§1) The male FBV mice of 5 weeks old, commercially available from BioLASCO Co., Ilan, Taiwan, were acclimatized for 1 week, prior to administration of streptozotocin (STZ) at 40 mg/kg for 3 consecutive days. STZ was formulated with an aqueous solution of sodium citrate (pH 4.5, 73.5 mg/5 mL) on ice, and then 100 μL of the formulation was dosed by intraperitoneal injection. From day 2 in the 3 consecutive days, the mice were dosed with 5% (w/v) glucose water for 6 consecutive days. After allowing the mice to rest for 10 days, blood glucose levels were measured. After administration of STZ for 1 week, about 5 μL of blood was collected from each of the mice at the tail vein, and was assayed for blood glucose by a blood glucose monitor and chip (FORA, California, U.S.A.). After 1 week, blood glucose was detected once more, and whether blood glucose was smooth or not was evaluated prior to grouping. The values of blood glucose in all of the mice induced to suffer from diabetes were brought to fall within about 300±50 mg/dL.
(§2) An appropriate amount of the Taiwan Green Propolis alcohol extract was dissolved with 3 ml 95% alcohol and then uniformly mixed with 80 μL Tween 80 as a cosolvent; after concentrating under reduced pressure for removal of alcohol, it was dispersed into 16 ml water to give a liquid mixture of the Taiwan Green Propolis extract. This mixture was fed by 200 μL gavage into the diabetic mice designated as the Taiwan Green Propolis extract group.
(§3) An appropriate amount of propolins and its relevant derivatives, such as PPA, PPB, PPC, PPD, PPE, PPF, PPG, PPH, PPI or PPJ, was dissolved with 3 ml 95% alcohol and then uniformly mixed with 80 μL Tween 80; after concentrating under reduced pressure for removal of alcohol, it was uniformly dispersed into 16 ml water to give a liquid mixture of propolins. This mixture was fed by 200 μL gavage into the diabetic mice designated as the propolins and its relevant derivative group.
(§4) Sitagliptin (trade name: Januvia), commercially available from American Merck Co., was used as the DPP4 inhibitor. An appropriate amount of sitagliptin was dissolved in water to provide a final concentration allowing administration of the mice at a dose of 370 mg/kg. In the following example, Januvia was representative of the DPP4 inhibitors and acted as a positive control group for reference.
(§5) Tween 80 (80 μL) was mixed into 16 ml water to give a placebo, which was fed by 200 μL gavage into the STZ-induced diabetic mice or normal mice (i.e., the mice without induction for diabetes). Oral gavage was carried out once at a fixed time each day, and weight, feedstuff intake and water intake were measured weekly until tests were finished at 12-13 weeks.

[2] = tested on: STZ-induced diabetic mice; experiment: Oral glucose tolerance test (OGTT); parameters: reduction of AUC compared with the STZ group / extent of reduction of AUC compared with the STZ group: concentration or dose not given beside the values; conditions: propolins study; for AUC value for blood glucose (integral area) / extent of reduction of AUC compared with the STZ group: OGTT
Method: as §1
After administration of the testing substance to the animals for 12 weeks, the OGTT test was performed for evaluation of secretion and effects of insulin. All of the mice in the test were administered with the testing substance and then fasted for 4 hours prior to blood sampling at the first point called point 0. Afterwards, the mice were fed by oral gavage with 200 μL glucose in water, equivalent to a dose of 1.0 g/kg. After administration, blood was collected for an assay of blood glucose at 15, 30, 60, 120 and 180 minutes, respectively. Therefore, a total of 6 points, including points at 0, 15, 30, 60, 120 and 180 minutes, were obtained. About 5 μL of blood was collected from each of the mice at the tail vein and was then assayed for blood glucose by the blood glucose monitor and chip (FORA, California, U.S.A.). The blood glucose values at the Y-axis were plotted against the time points at the X-axis. Each group was calculated for an area under curve for comparison. The efficacy in regulation of blood glucose was evaluated by the area showing a relationship between the testing substance and secretion and effects of insulin.

[3] = tested on: STZ-induced diabetic mice; experiment: Water intake of the diabetic mice; conditions: propolins study
Method: as §1, §2, §3, §4, §5

[4] = tested on: STZ-induced diabetic mice; experiment: Blood glucose in the STZ-induced diabetic mice; conditions: propolins study; for modulation of blood glucose: 8 weeks, dose 1.2-2.4% of the Januvia dose
Method: as §1, with “mg/dL. […]” for “mg/dL.”
as §3, §4, §5

[5] = 0 point, PPC 9.0, PPD 6.75, PPF 4.5, PPG 4.5, DPP4I 370 mg/kg/mouse
[6] = 30-minute time point after glucose in water
[7] = after administration for 8 weeks by gavage daily, PPC 9.0, PPD 6.75, PPF 4.5, PPG 4.5, Januvia 370 mg/kg/mouse

| Compound | effect on feedstuff intake [1] | feedstuff intake ([1]; at 1 week) [g/mouse] | feedstuff intake ([1]; at 6 weeks) [g/mouse] | feedstuff intake ([1]; at 8 weeks) [g/mouse] | value of blood glucose in glucose tolerance test [2, 5] | value of blood glucose in glucose tolerance test [2, 6] | value of blood glucose in glucose tolerance test ([2]; 120-minute time point) | value of blood glucose in glucose tolerance test ([2]; 180-minute time point) [mg/dL] | AUC value for blood glucose (integral area) [2] | extent of reduction of AUC compared with the STZ group [2] [%] | effect on water intake [3] | water intake ([3]; at 1 week) [mL/mouse] | water intake ([3]; at 6 weeks) [mL/mouse] | water intake ([3]; at 8 weeks) [mL/mouse] | modulation of blood glucose [4] | blood glucose [4, 7] [mg/dL] | blood glucose ([4]; at 0 week) [mg/dL] | efficacy in glucose tolerance test ([2]; compared to the STZ group) |
| --- | --- | --- | --- | --- | --- | --- | --- | --- | --- | --- | --- | --- | --- | --- | --- | --- | --- | --- |
| CC(C)=CCC/C(C)=C/Cc1c(O)cc2c(c1O)C(=O)C[C@@H](c1ccc(O)c(O)c1)O2 [PPC, (S,E)-2-(3,4-dihydroxyphenyl)-6-(3,7-dimethylocta-2,6-dien-1-yl)-5,7-dihydroxy-3,4-dihydro-2H-1-benzopyran-4-one] | significantly inhibited feedstuff intake | 7.2 | 8.0 | 7.9 | about 350 mg/dL | about 450 mg/dL | about 430 mg/dL | 400 | about 8.0×10^4 | 28.2 | significantly inhibited water intake | 8.2 | 16.0 | 24.0 | highly effectively modulated | 298 | 330 |  |
| CC(C)=CCC/C(C)=C/Cc1c([C@@H]2CC(=O)c3c(O)cc(O)cc3O2)ccc(O)c1O [PPD, (S,E)-2-(2-(3,7-dimethylocta-2,6-dien-1-yl)-3,4-dihydroxyphenyl)-5,7-dihydroxy-3,4-dihydro-2H-1-benzopyran-4-one] | significantly inhibited feedstuff intake | 7.2 | 7.2 | 7.2 | about 380 mg/dL | about 530 mg/dL | about 490 mg/dL | 460 | about 8.7×10^4 | 16.2 | significantly inhibited water intake | 8.0 | 14.0 | 16.0 | highly effectively modulated | 400 | 330 |  |
| CC(C)=CCC/C(C)=C/Cc1cc([C@@H]2CC(=O)c3c(O)cc(O)cc3O2)cc(O)c1O [PPF, (S,E)-2-(3-(3,7-dimethylocta-2,6-dien-1-yl)-4,5-dihydroxyphenyl)-5,7-dihydroxy-3,4-dihydro-2H-1-benzopyran-4-one] | significantly inhibited feedstuff intake | 6.3 | 7.0 | 6.3 | about 390 mg/dL | about 525 mg/dL | about 420 mg/dL | 430 | about 8.2×10^4 | 15.0 |  | 8.0 | 13.0 | 10.0 | effectively highly modulated | 398 | 330 |  |
| CC(C)=CCC/C(C)=C/Cc1c([C@@H]2CC(=O)c3c(cc(O)c(CC=C(C)C)c3O)O2)ccc(O)c1O [PPG, (S,E)-2-(2-(3,7-dimethylocta-2,6-dien-1-yl)-3,4-dihydroxyphenyl)-5,7-dihydroxy-6-(3-methylbut-2-en-1-yl)-3,4-dihydro-2H-1-benzopyran-4-one] | significantly inhibited feedstuff intake | 4.8 | 7.0 | 7.2 | about 385 mg/dL | about 525 mg/dL | about 380 mg/dL | 350 | about 7.8×10^4 | 31.7 |  | 6.5 | 9.0 | 9.0 | higher activity for modulation of blood glucose than DPP4I; also recorded: the most effective compound for modulating blood glucose | 298 | 330 | more excellent efficacy |

Source: US9457007B2, “Prenylflavanone compounds for modulating diabetes” (NATUREWISE BIOTECH & MEDICALS CORPORATION, priority 2013, dated 2016)
